Legend:
[1] = test system: Rb serine-780; assay: Rb serine-780 phosphorylation, Western blot in A549 cells; format: cell-based, human; details: 24 h, 1% DCC-FBS, 1 nM E2, 1 nM androstenedione, 10 nM testosterone, 10 μM letrozole, 100 nM palbociclib, FIG. 4C
Description: FIG. 4C. […] Cells were treated 24 h in phenol red-free RPMI with 1% DCC-FBS with vehicle control (CON), 1 nM estradiol-17β (E2), 1 nM androstenedione (And), 10 nM testosterone (Tes), 10 μM letrozole (AI), 100 nM palbociclib (Plbo) or both Plbo+AI. After 24 hr, cell lysates subjected to Western blot with antibody to phosphoserine-780 Rb or total Rb (Cell Signaling) (20). GAPDH is used as loading control.
To investigate the antitumor efficacy of CDK 4/6 inhibitor palbociclib in NSCLC cells, we assessed the effects of palbociclib alone and in combination with the hormonal therapeutic letrozole (see FIGS. 4B and 5B). The potential mechanism of action of palbociclib and letrozole in NSCLC cells was investigated by assay of the effects of these agents alone and combined on phosphorylation of Rb serine-780

[2] = test system: cyclin D1; assay: Cyclin D1 expression, Western immunoblot in A549 NSCLC cells; format: cell-based, human; details: 24 h, 1% DCC-FBS, letrozole 10 μM, FIG. 5B
Description: FIG. 5B. […] Cells were treated 24 h in phenol red-free RPMI with 1% DCC-FBS. Control (Con), estradiol-17β (E2; 1 nM), androstenedione (And; 1 nM), testosterone (Tst; 10 nM), letrozole (AI; 10 μM) and palbociclib (Plbo; 1 μM) were used in this experiment. GADPH is used as a loading control (20).

[3] = test system: A549 NSCLC cells; assay: NSCLC cell proliferation in vitro (MTS assay); format: cell-based, human
[4] = test system: H1975 NSCLC cells; assay: NSCLC cell proliferation in vitro (MTS assay); format: cell-based, human; details: Homo sapiens, NCI-H1975, SERD alone, 72 hours, estrogen-depleted phenol red-free medium with 5% DCC-FBS, read-out: IC50 for inhibition of NSCLC cell proliferation, H1975
Description: (§1) Cell culture: Human breast and non-small cell lung cancer cells (MCF7, ZR75-1, MDAMB231, A549, H23, H1975, […]) were from ATCC. MCF7-HER2 were a kind gift of Dr. Dennis Slamon (23). Cell lines were routinely maintained in RPMI 1640 or DMEM medium with 10% fetal bovine serum (FBS) (Sigma-Aldrich) and 1% Antibiotic-Antimycotic solution 100× (Mediatech, Herndon, Va.). When indicated, for estrogen-free conditions, media was changed 48 h before experiments to phenol-red free RPMI 1640/DMEM with 1% dextran-coated, charcoal-treated (DCC)-FBS (24,25). Otherwise experiments were performed in phenol-red free RPMI 1640/DMEM medium with 5% DCC-FBS.
(§2) Cell proliferation assays: breast and lung tumor cells (between […]) were plated in 96 well plates using their respective medium with 10% FBS. For experiments using estradiol-17β, cells were rinsed with PBS and incubated with phenol redfree medium with 1% DCC-FBS for 48 hours as described before (24,25). Cells were then treated with different concentrations of SERDs ranging between 0.0001-100 μM. […] Cell counts and viability tests (Trypan blue) were done every 24 hr for 3 days. After 72 hr, proliferation was assessed with the MTS Assay CELLTITER 96® Aqueous Cell Proliferation Assay (Promega) or the Cell Proliferation ELISA, BrdU colorimetric assay (Roche). For the MTS, the absorbance of the formazan product was measured at 490 nanometer using the iMARK microplate reader from BIORAD. The BrdU ELISA assay is based on detection of BrdU incorporated into the genomic DNA of proliferating cells and an anti-BrdU antibody, the reaction product was quantified by measuring the absorbance at 370 nanometers using iMARK microplate reader from BIORAD. Cell numbers were also assessed initially by cell counts to confirm MTS/BrdU data. Experiments were done at least three times to confirm data.

[5] = test system: H2122 NSCLC cells; assay: NSCLC cell proliferation in vitro (MTS assay); format: cell-based, human; details: Homo sapiens, NCI-H2122, SERD alone, 72 hours, estrogen-depleted phenol red-free medium with 5% DCC-FBS, read-out: IC50 for inhibition of NSCLC cell proliferation, H2122
Description: as §1, §2

[6] = test system: MAPK: ERK-1 (p44) and ERK-2 (p42); assay: Estrogen-induced MAPK phosphorylation, Western blot in MCF-7 cells; format: cell-based, human; details: MCF-7 parent cells, 1 nM estradiol (E2); antagonists pre-incubated at 1000 nM; FIG. 7A
Description: ERD inhibition of phosphorylation of MAPK, at both extracellular signal-regulated kinases ERK-1 (p44) and ERK-2 (p42) and downstream effects. […] Thus, we measured estrogen-induced phosphorylation of MAPK by established methods (9,15,16). Briefly, MCF-7 parental cells were estrogen deprived for 48 hrs, then treated with 1 nM estradiol-1713 in the presence of new compounds (10 nM-10 μM) to be tested for antagonist activity. After treatments, cell lysates were separated by SDS-PAGE followed by Western blot using a polyclonal antibody directed to phospho-p44/p42 MAP kinase (Thr202/Tyr204) (Cell Signaling). Immunodetection with antibody against total p44/p42 (Cell Signaling) was done as a control for gel loading. […] ERD S15 was as effective as fulvestrant in inhibiting the rapid estrogen-induced MAPK phosphorylation in breast tumor cells in vitro. […] E2 but not vehicle (CN) induced rapid phosphorylation of ERK-1 (p44) and ERK-2 (p42). This activation was prevented when cells were pre-incubated with 1000 nM ICI 182,780 (ICI; Faslodex) or 1000 nM compound S15 in the presence of estradiol (E2).

[7] = test system: MCF-7/HER-2 cells; details: MCF-7 cells with HER2-overexpression, xenografts in nude mice; cited from earlier work
[8] = test system: MCF-7 breast cancer cells; assay: MCF-7 breast cancer cell proliferation (BrdU ELISA) in presence of estradiol-17β; format: cell-based, human; details: Homo sapiens, MCF7; 72 hrs in the presence of 1 nM estradiol-17β, BrdU ELISA; read-out: IC50 for inhibition of cell proliferation, MCF-7
Description: In experiments to assess potential proliferative effects of novel estrogen receptor ligands, human breast cancer cells were grown in phenol red-free, estrogen-free media with 1% dextran-coated charcoal-treated (DCC)-fetal bovine serum (FBS) for 48 hrs (15,44), then treated with either 1 μM or 50 μM doses of estrogen receptor antagonists in the presence of 1 nM estradiol-17β. Cell counts and viability tests (Trypan blue) were done every 24 hr for 3 days. After 72 hr, proliferation was assessed using the BrdU Cell proliferation ELISA (Roche). Cell numbers were also assessed initially by cell counts to confirm ELISA data. Each antiestrogen was tested at least in three different experiments.
In order to assess the antitumor action of novel estrogen receptor antagonists, we cultured human MCF-7 breast cancer cells with known expression of ERα. Cells were grown in 1% DCC-FBS for 48 hr and then treated with vehicle control or either 1 μM or 50 μM concentrations of antiestrogens JD 101-160 or the pure antiestrogen fulvestrant (FAS), all in the presence of 1 nM estradiol-170. […] Shown in FIG. 2A are results from MCF-7 cells grown in 1% DCC-FBS for 48 hr and then treated with vehicle control, 1 nM estradiol-170 and either 1 μM or 50 μM concentrations of antiestrogens JD 101-160 or the known pure antiestrogen fulvestrant (FAS) in the presence of 1 nM estradiol-170. Cell proliferation is expressed as percentage of that determined in the 1 nM estradiol-170-treated control group.
as §2

[9] = test system: MCF-7 parental cells; details: MCF-7 parental xenografts in nude mice; cited from earlier work

Structure (SMILES) | phosphorylation of Rb serine-780 [1] | cyclin D1 expression [2] | inhibition of NSCLC cell proliferation ([3]; A549, 72 hrs, single agents and palbociclib (10 or 100 nM)/letrozole (10 μM), FIG. 6B) | IC50 [4] [nM] | IC50 [5] [nM] | phosphorylation of MAPK (ERK-1 p44 and ERK-2 p42) [6] | IC50 ([3]; Homo sapiens, A549, SERD alone, 72 hours, estrogen-depleted phenol red-free medium with 5% DCC-FBS, MTS assay, read-out: IC50 for inhibition of NSCLC cell proliferation, A549) [µM] | sensitivity of MCF-7/HER-2 xenografts [7] | IC50 [8] [nM] | growth of parent tumors (xenografts) [9]
N#Cc1ccc(C(c2ccc(C#N)cc2)n2cncn2)cc1 [letrozole] | block | reduces cyclin D1 expression | dose-dependent inhibition | – | – | – | – | – | – | –
C[C@]12CC[C@@H]3c4ccc(O)cc4C[C@@H](CCCCCCCCC[S+]([O-])CCCC(F)(F)C(F)(F)F)[C@H]3[C@@H]1CC[C@@H]2O (stereo partly shown) [FULVEST, fulvestrant, reference compound] | – | – | – | 1880 | 1290 | prevented | 4.16 | partially sensitive | 1110 | suppressed

— patent US10918648B2, “Estrogen receptor modulator combinations” (The Regents of the University of California, priority 2016, dated 2021)
